Data as given in the supplement of paper PMC10307832.

How the values were obtained:
Experiment in all cases: relative viability (nuclei count vs DMSO), 5 days (fraction); higher = more cells survive
[1] = compound: CC[C@@H](C)CNCC(=O)N1CCC2=C([C@@H]1COC3=CC=CC(=C3)C)C=CS2 [RU-SKI 43] + Nc1nc2[nH]cc(CCc3ccc(C(=O)N[C@@H](CCC(=O)O)C(=O)O)cc3)c2c(=O)[nH]1 [Pemetrexed] (partner 0.2 µM)
Method in brief: (§1)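 Relative viability divides the nuclei count in treated wells by that in vehicle wells. Lung cancer cell lines were seeded in 1536-well plates, dosed by pin tool the next day, and fixed and stained after 5 days in one step with final 0.05% Triton X-100, 1% formaldehyde and 1 ug/ml Hoechst. Dosing was a single drug or a fixed anchor-drug dose plus five library-drug doses (not always all listed) in √10 steps, and values are medians of duplicate plates imaged at 4×.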

[2] = compound: CC[C@@H](C)CNCC(=O)N1CCC2=C([C@@H]1COC3=CC=CC(=C3)C)C=CS2 [RU-SKI 43] + Nc1ncn([C@H]2C[C@H](O)[C@@H](CO)O2)c(=O)n1 [Decitabine] (partner 2 µM)
Method in brief: as §1

[3] = compound: CC[C@@H](C)CNCC(=O)N1CCC2=C([C@@H]1COC3=CC=CC(=C3)C)C=CS2 [RU-SKI 43] + NC(=O)Nc1cc(-c2cccc(F)c2)sc1C(=O)N[C@H]1CCCNC1 [AZD7762] (partner 0.2 µM)
Method in brief: as §1

[4] = compound: Cn1cc(-c2cnc3ccc4ccc(CS(=O)(=O)NCc5ccccn5)cc4c(=O)c3c2)cn1 [MK-8033] + CC(=O)Nc1cccc(-n2c(=O)n(C3CC3)c(=O)c3c(Nc4ccc(I)cc4F)n(C)c(=O)c(C)c32)c1 [Trametinib] (partner 0.02 µM)
Method in brief: as §1

Cell Line | relative viability ([1]; first compound 0.1 µM) | relative viability ([1]; first compound 0.3162 µM) | relative viability ([1]; first compound 1 µM) | relative viability ([1]; first compound 3.162 µM) | relative viability ([1]; first compound 10 µM) | relative viability ([2]; first compound 0.1 µM) | relative viability ([2]; first compound 0.3162 µM) | relative viability ([2]; first compound 1 µM) | relative viability ([2]; first compound 3.162 µM) | relative viability ([2]; first compound 10 µM) | relative viability ([3]; first compound 0.1 µM) | relative viability ([3]; first compound 0.3162 µM) | relative viability ([3]; first compound 1 µM) | relative viability ([3]; first compound 3.162 µM) | relative viability ([3]; first compound 10 µM) | relative viability ([4]; first compound 0.02 µM) | relative viability ([4]; first compound 0.06325 µM) | relative viability ([4]; first compound 0.2 µM) | relative viability ([4]; first compound 0.6325 µM) | relative viability ([4]; first compound 2 µM)
NCI-H1651 | 0.556 | 0.701 | 0.744 | 0.557 | 0.59 | 0.624 | 0.593 | 0.7 | 0.593 | 0.589 | 0.506 | 0.467 | 0.549 | 0.535 | 0.456 | 0.823 | 0.846 | 0.845 | 0.809 | 0.861
NCI-H1666 | 0.864 | 0.914 | 0.901 | 0.815 | 0.844 | 0.739 | 0.794 | 0.721 | 0.643 | 0.665 | 0.884 | 0.754 | 0.956 | 0.774 | 0.78 | 0.846 | 0.777 | 0.862 | 0.787 | 0.855
NCI-H1734 | 0.44 | 0.406 | 0.426 | 0.41 | 0.407 | 0.522 | 0.544 | 0.598 | 0.487 | 0.473 | 0.588 | 0.604 | 0.573 | 0.61 | 0.579 | 0.655 | 0.594 | 0.712 | 0.636 | 0.687
NCI-H1755 | 0.374 | 0.466 | 0.378 | 0.377 | 0.637 | 0.714 | 0.798 | 0.758 | 0.715 | 0.755 | 0.42 | 0.504 | 0.46 | 0.411 | 0.359 | 0.804 | 0.767 | 0.74 | 0.702 | 0.732
NCI-H1792 | 0.734 | 1.04 | 1.24 | 0.77 | 0.842 | 0.392 | 0.667 | 0.682 | 0.728 | 0.561 | 0.623 | 0.753 | 0.656 | 0.712 | 0.686 | 0.536 | 0.33 | 0.352 | 0.437 | 0.36
NCI-H1793 | 1.01 | 0.995 | 0.941 | 0.772 | 1.02 | 0.461 | 0.421 | 0.458 | 0.486 | 0.443 | 0.56 | 0.719 | 0.641 | 0.447 | 0.29 | 0.425 | – | 0.362 | 0.447 | 0.361
NCI-H1915 | 0.483 | 0.693 | 0.602 | 0.515 | 0.443 | 0.272 | 0.257 | 0.285 | 0.25 | 0.255 | 0.699 | 0.833 | 0.702 | 0.672 | 0.688 | 0.276 | 0.319 | 0.274 | 0.289 | 0.306
NCI-H1944 | 0.614 | 0.711 | 0.566 | 0.619 | 0.707 | 0.449 | 0.4 | 0.423 | 0.473 | 0.442 | 0.591 | 0.579 | 0.447 | 0.589 | 0.502 | 0.407 | 0.418 | 0.395 | 0.391 | 0.398
NCI-H1975 | 0.311 | 0.298 | 0.341 | 0.327 | 0.292 | 0.346 | 0.377 | 0.439 | 0.381 | 0.276 | 0.763 | 0.748 | 0.97 | 0.671 | 0.803 | 0.357 | 0.301 | 0.279 | 0.239 | 0.405
NCI-H1993 | 0.59 | 0.625 | 0.558 | 0.624 | 0.465 | 0.547 | 0.578 | 0.517 | 1.1 | 0.643 | 0.677 | 0.775 | 0.807 | 0.712 | 0.688 | 0.55 | 0.506 | 0.427 | 0.469 | 0.456
NCI-H2085 | 1.02 | 0.899 | 0.894 | 0.85 | 0.845 | 0.509 | 0.497 | 0.572 | 0.603 | 0.509 | 1.02 | 0.856 | 0.948 | 1.08 | 1.02 | 0.542 | 0.546 | 0.525 | 0.554 | 0.574
NCI-H2087 | 0.684 | 0.762 | 0.714 | 0.694 | 0.692 | 0.324 | 0.283 | 0.281 | 0.247 | 0.238 | 1.33 | 1.65 | 1.3 | 1.36 | 1.31 | 0.213 | 0.147 | 0.187 | 0.214 | 0.254
NCI-H2126 | 0.724 | 0.745 | 0.682 | 0.739 | 0.709 | 0.591 | 0.574 | 0.523 | 0.615 | 0.554 | 1.05 | 1.17 | 1.09 | 1.05 | 1.04 | 0.542 | 0.554 | 0.525 | 0.585 | 0.569
NCI-H2170 | 0.251 | 0.297 | 0.262 | 0.275 | 0.243 | 0.439 | 0.514 | 0.438 | 0.426 | 0.49 | 0.846 | 1.07 | 0.959 | 0.866 | 0.882 | 0.838 | 0.92 | 0.844 | 0.922 | 0.824
NCI-H2342 | 0.757 | – | 0.831 | 0.812 | 0.711 | 0.701 | – | 0.724 | 0.797 | 0.769 | 0.474 | – | 0.564 | 0.468 | 0.477 | 0.83 | 0.773 | 0.827 | 0.999 | 0.83
NCI-H2347 | 0.404 | 0.513 | 0.431 | 0.52 | 0.538 | 0.604 | 0.542 | 0.651 | 0.617 | 0.636 | 0.732 | 0.74 | 0.812 | 0.614 | 0.642 | 0.326 | 0.344 | 0.295 | 0.287 | 0.281
NCI-H2405 | 1.16 | 1.14 | 1.11 | 1.21 | 1.13 | 0.704 | 0.778 | 0.681 | 0.808 | 0.688 | 0.801 | 0.83 | 0.876 | 0.84 | 0.452 | 0.601 | 0.619 | 0.496 | 0.603 | 0.667
NCI-H3122 | 0.202 | 0.216 | 0.198 | 0.193 | 0.19 | 0.365 | 0.478 | 0.469 | 0.413 | 0.391 | 0.957 | 1.27 | 1.01 | 1.15 | 0.95 | 0.262 | 0.247 | 0.21 | 0.238 | 0.3
PC-3 [JPC-3] | 1.09 | 0.917 | 1.37 | 1.15 | 1.2 | 0.789 | 0.894 | 0.804 | 0.852 | 0.749 | 0.885 | 0.671 | 0.828 | 0.834 | 0.336 | 0.599 | – | 0.68 | 0.708 | 0.666
PC-14 | 0.132 | 0.13 | 0.133 | 0.151 | 0.13 | 0.248 | 0.219 | 0.225 | 0.218 | 0.203 | 0.392 | 0.377 | 0.441 | 0.32 | 0.379 | 0.723 | 0.604 | 0.649 | 0.774 | 0.654
RERF-LC-KJ | 0.48 | 0.462 | 0.508 | 0.457 | 0.482 | 0.782 | 0.832 | 0.69 | 0.681 | 0.58 | 0.97 | 1.01 | 1.21 | 1.17 | 1.04 | 0.818 | 0.843 | 0.812 | 0.828 | 0.812
SW 900 | 0.484 | 0.494 | 0.498 | 0.478 | 0.461 | 0.422 | 0.408 | 0.423 | 0.428 | 0.453 | 0.523 | 0.612 | 0.571 | 0.588 | 0.58 | 0.762 | 0.583 | 0.612 | 0.936 | 0.848
